# According to US11564922B2, “Methods of treating crohn's disease and ulcerative colitis” (AbbVie Inc., priority 2017, dated 2023):
# Entries after “also recorded” stand apart in the source; their conditions may differ.
# What was measured:
# [1] = Solid state forms of upadacitinib: chemical and physical stability
# [2] = Solid state forms of upadacitinib: hygroscopicity; format: physicochemical
# [3] = test system: subjects with moderately to severely active CD; assay: Study M13-740: Phase 2 induction study, immediate-release upadacitinib vs placebo; format: in vivo, human; conditions: induction phase of Study M13-740, immediate-release formulation, doses of 6 mg BID and higher
# [4] = Pharmacokinetic exposure of once-daily formulation versus immediate-release formulation (AUC, Cmin, Cmax); format: in vivo, human; conditions: 15 mg QD and 30 mg QD once-daily formulation versus 6 mg BID and 12 mg BID immediate-release formulation, respectively
# Method: This study evaluated two maintenance doses of upadacitinib at 15 mg and 30 mg QD. […] In addition, all the currently available PK, pharmacodynamic, safety, and efficacy data from upadacitinib studies were used to support the selection of these doses. […] Following induction with 45 mg QD, doses of 15 mg QD and 30 mg QD are expected to maintain clinical and endoscopic response while having better long-term safety profile compared to higher doses. Doses of 15 mg QD and 30 mg QD for up to 240 weeks were expected to be efficacious with an acceptable safety profile.
# [5] = test system: subjects with moderately to severely active ulcerative colitis; assay: Example 19: Phase 3 induction study in ulcerative colitis (Study M14-675), upadacitinib 45 mg QD vs placebo
# Method: The primary objective of this study is to evaluate the efficacy and safety of upadacitinib 45 mg once daily (QD) compared to placebo in inducing clinical remission (per Adapted Mayo score) in subjects with moderately to severely active ulcerative colitis (UC).
# The secondary objectives of the study are to evaluate the efficacy of upadacitinib 45 mg QD comparing with placebo in ranked secondary endpoints of achieving endoscopic improvement, endoscopic remission, clinical response per Adapted Mayo Score, clinical response per Partial Adapted Mayo score, histologic-endoscopic mucosal improvement, no bowel urgency, no abdominal pain, histologic improvement, mucosal healing, and change in IBDQ total score and FACIT-F score.
# Males and females between 18 and 75 years of age with a diagnosis of moderately to severely active UC. […] The study will consist of a mixed population: biologic-inadequate responders (bio-IR) and non-biologic-inadequate responders (non-bio-IR).
# The randomization will be stratified by bio-IR status (bio-IR vs non-bio-IR), corticosteroid use (yes or no) and Adapted Mayo score (≤7 or >7) at Baseline. Within bio-IR, the randomization will be further stratified by number of prior biologic treatments (≤1 or >1). Within non-bio-IR, the randomization will be further stratified by previous biologic use (yes or no).
# The blind from Part 1 will not be broken for the duration of the study as subjects will be assessed as clinical non-responders at the 8 Week Visit of Part 1 and will be moved to Part 2 for further treatment in the study without identifying their initial treatment assignment. All eligible subjects entering Part 2 will receive open-label treatment with upadacitinib 45 mg QD for 8 additional weeks (until Week 16). At Week 16, an endoscopy will be performed to evaluate the treatment effect. A flexible rectosigmoidoscopy is recommended. However, the use of flexible sigmoidoscopy or colonoscopy is at the investigators' discretion based on local practice.
# For the assessment of the clinical endpoints, the stool frequency and the rectal bleeding subscore will be calculated as an average of the entries recorded into the subject's diary from the most recent consecutive 3-day period prior to each study visit. If diary entries from the 3 consecutive days prior to the visit are not available, the 3 most recent consecutive days in the last 10 days will be utilized. If data is not available for 3 consecutive days, the average of the entries from the most recent 3 non-consecutive days in the last 10 days will be utilized. Clinical endpoints of abdominal pain and bowel urgency from subject diaries will be measured at the same time period as the stool frequency and rectal bleeding subscores. Proportion of subjects who report no abdominal pain and proportion of subjects who report no bowel urgency in the 3 days will be estimated.
# Subjects will undergo a full colonoscopy with biopsy for histologic assessment during Screening with local investigator assessment for Mayo endoscopic subscore for initial eligibility assessment, confirmed by a central reader prior to randomization. At end of treatment (Week 8 in Part 1) a full colonoscopy or flexible sigmoidoscopy, depending on the extent of disease at Screening, will be performed.
# The endoscopic subscore result from the central reader during the screening period will be used to evaluate the eligibility of a subject to enroll in the study and for all efficacy assessments at Week 8 of Part 1.
# Male or female between 16 and 75 years of age at Baseline.
# [6] = test system: subjects with moderately to severely active ulcerative colitis; assay: Example 20: Phase 3 maintenance study in ulcerative colitis (Study M14-234 Substudy 3), upadacitinib 15 mg or 30 mg QD vs placebo, 52 weeks; format: in vivo, human; conditions: for Corticosteroid-free remission, % of patients: patients in remission at completion of the 8-week induction studies; for Clinical remission (per Adapted Mayo Score) / Endoscopic improvement / Histologic-endoscopic mucosal improvement / Corticosteroid-free clinical remission: Week 52; for Corticosteroid-free clinical remission: among patients with clinical remission after 8 weeks of induction; for Clinical remission per Adapted Mayo Score at Week 52, % / Clinical remission at Week 52, Treatment Difference vs. PBO / Discontinued from Study Drug, Adverse events (primary reason), % / Discontinued from Study Drug, Lack of efficacy (primary reason), %: ITTA; for Clinical remission per Adapted Mayo Score at Week 52, % / Clinical remission at Week 52, Treatment Difference vs. PBO: NRI-C
# [7] = Solid state forms of upadacitinib: solubility and bioavailability; format: physicochemical
structure (smiles),measurement,setting,value
CC[C@@H]1CN(C(=O)NCC(F)(F)F)C[C@@H]1c1cnc2cnc3[nH]ccc3n12.CC[C@@H]1CN(C(=O)NCC(F)(F)F)C[C@@H]1c1cnc2cnc3[nH]ccc3n12.O [Freebase Hydrate Form C],Chemical stability,[1],good chemical stability
same,Hygroscopicity,[2],low hygroscopicity
CC[C@@H]1CN(C(=O)NCC(F)(F)F)C[C@@H]1c1cnc2cnc3[nH]ccc3n12 [Freebase Anhydrate Form D],Physical stability,[1],metastable relative to Freebase Hydrate Form C
same,Hygroscopicity,[2],reversibly hygroscopic
same,Water content (hygroscopicity),[2]; 90% RH at 25° C.,up to 1.8%
"CC[C@@H]1CN(C(=O)NCC(F)(F)F)C[C@@H]1c1cnc2cnc3[nH]ccc3n12 [upadacitinib, (3S,4R)-3-ethyl-4-(3H-imidazo[1,2-a]pyrrolo[2,3-e]pyrazin-8-yl)-N-(2,2,2-trifluoroethyl)pyrrolidine-1-carboxamide]",clinical and endoscopic efficacy compared to placebo,[3],demonstrated the clinical and endoscopic efficacy
same,daily area under the concentration-time curve (AUC),[4],equivalent
same,minimum plasma concentration (Cmin) and maximum plasma concentration (Cmax),[4],comparable
same,Rates of severe adverse events and AEs leading to study drug discontinuation compared to placebo,[5]; 45 mg,lower
same,Onset of clinical response per Partial Adapted Mayo Score,[5]; 45 mg QD,as early as Week 2
same,Patients with clinical response at week 8,[5]; 45 mg QD,approximately 75%
same,"Rates of neutropenia, lymphopenia, hepatic disorder, and CPK elevation compared to placebo",[5]; 45 mg QD,higher
same,Tolerability of eight-week induction treatment,[5]; 45 mg QD,well tolerated
same,Week 8 non-responding patients with clinical response by 16 weeks,"[5]; 45 mg QD, additional 8 weeks",approximately 50%
same,Deaths,"[5]; 45 mg QD, 8 weeks",No deaths were reported
same,Primary and ranked secondary endpoints vs placebo,"[5]; 45 mg QD, 8 weeks, all p<0.001",met primary and all ranked secondary endpoints
same,Proportion of subjects achieving clinical remission per Adapted Mayo score at Week 8,"[5]; 45 mg QD, SFS ≤1 and not greater than baseline, RBS 0, endoscopic subscore ≤1",33.5%
same,"Clinical remission per Adapted Mayo score at Week 52, proportion of subjects",[6]; 15 mg QD maintenance after 8 weeks 45 mg QD induction,42.3%
same,Safety and tolerability,"[6]; 15 mg and 30 mg QD, 52 weeks",generally safe and well tolerated
same,"Corticosteroid-free remission, % of patients",[6]; 15 mg cohort,57%
same,Clinical remission (per Adapted Mayo Score),[6]; 15 mg once daily (n = 148),42%
same,Endoscopic improvement,[6]; 15 mg once daily (n = 148),49%
same,Histologic-endoscopic mucosal improvement,[6]; 15 mg once daily (n = 148),35%
same,Corticosteroid-free clinical remission,"[6]; 15 mg once daily, N = 47",57%
same,"Clinical remission per Adapted Mayo score at Week 52, proportion of subjects",[6]; 30 mg QD maintenance after 8 weeks 45 mg QD induction,51.7%
same,"Corticosteroid-free remission, % of patients",[6]; 30 mg cohort,68%
same,Clinical remission (per Adapted Mayo Score),[6]; 30 mg once daily (n = 154),52%
same,Endoscopic improvement,[6]; 30 mg once daily (n = 154),62%
same,Histologic-endoscopic mucosal improvement,[6]; 30 mg once daily (n = 154),49%
same,Corticosteroid-free clinical remission,"[6]; 30 mg once daily, N = 58",68%
same,Clinical response per Partial Adapted Mayo Score and clinical remission rate per Partial Mayo Score over time,"[6]; both upadacitinib groups (15 mg, 30 mg)",maintained over time until Week 52
same,"Upadacitinib pharmacokinetics, induction vs maintenance periods",[6]; subjects with UC,consistent between the induction and maintenance periods
CC[C@@H]1CN(C(=O)NCC(F)(F)F)C[C@@H]1c1cnc2cnc3[nH]ccc3n12 [Freebase Hydrate Form B],Physical stability,[1],not physically stable; also recorded: not stable after isolation at ambient conditions
CC[C@@H]1CN(C(=O)NCC(F)(F)F)C[C@@H]1c1cnc2cnc3[nH]ccc3n12 [Amorphous Freebase],Solubility,[7],greater solubility
same,Chemical stability,[1],acceptable chemical stability
same,Stability to light and peroxide,[1],acceptable stability to light and peroxide
same,Hygroscopicity,[2],hygroscopic
same,Water content (hygroscopicity),[2]; 25° C./90% relative humidity,≤ 12 % by weight
"CC[C@@H]1CN(C(=O)NCC(F)(F)F)C[C@@H]1c1cnc2cnc3[nH]ccc3n12 [UPA, upadacitinib]","Clinical remission per Adapted Mayo Score at Week 52, %","[6]; Bio-IR, UPA 15 mg QD N = 71",40.5%
same,"Clinical remission at Week 52, Treatment Difference vs. PBO","[6]; Bio-IR, UPA 15 mg",33.0%
same,"Clinical remission per Adapted Mayo Score at Week 52, %","[6]; Bio-IR, UPA 30 mg QD N = 73",49.1%
same,"Clinical remission at Week 52, Treatment Difference vs. PBO","[6]; Bio-IR, UPA 30 mg",41.6%
same,"Clinical remission per Adapted Mayo Score at Week 52, %","[6]; Non-Bio-IR, UPA 15 mg QD N = 77",43.9%
same,"Clinical remission at Week 52, Treatment Difference vs. PBO","[6]; Non-Bio-IR, UPA 15 mg",26.3%
same,"Clinical remission per Adapted Mayo Score at Week 52, %","[6]; Non-Bio-IR, UPA 30 mg QD N = 81",54.0%
same,"Clinical remission at Week 52, Treatment Difference vs. PBO","[6]; Non-Bio-IR, UPA 30 mg",36.3%
same,"Discontinued from Study Drug, Adverse events (primary reason), %",[6]; UPA 15 mg QD (N = 148),(2.7) %
same,"Discontinued from Study Drug, Lack of efficacy (primary reason), %",[6]; UPA 15 mg QD (N = 148),(23.6) %
same,"Discontinued from Study Drug, Adverse events (primary reason), %",[6]; UPA 30 mg QD (N = 154),(5.2) %
same,"Discontinued from Study Drug, Lack of efficacy (primary reason), %",[6]; UPA 30 mg QD (N = 154),(7.8) %
